Measured values published in ChEMBL document CHEMBL1201862, “PubChem BioAssay data set” (2004).
Each block holds one compound with its values, some of them ahead of it. Active and inactive are the calls of the source. Unless noted, the calls are words filed in the database; no cut-off is given here.

How the values were obtained:
CHO = CHO cell viability loss, potency – luminescence, cytotoxicity control for TLR9-MyD88 binding inhibitor project, dose response (AID 588339); assay type: functional, cell-based, hamster; conditions: Cricetulus griseus;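 further: CHO cells stably coexpressing TLR9 and MyD88 fusions from primary screen; compound exposure lasted 48 hours before viability readout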
Beta Lactamase = Beta Lactamase (Pseudomonas aeruginosa, UniProt Q932Y6); assay: BLA reporter interference, concentration series – BLA reporter cells, FRET fluorescence, artefact control for TLR9-MyD88 binding inhibitor project, dose response (AID 588341); assay type: cell-based;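 further: cell based assay in CHO-K1 cells stably expressing beta-lactamase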
Chain of Beta Lactamase (Q932Y6 whole entry): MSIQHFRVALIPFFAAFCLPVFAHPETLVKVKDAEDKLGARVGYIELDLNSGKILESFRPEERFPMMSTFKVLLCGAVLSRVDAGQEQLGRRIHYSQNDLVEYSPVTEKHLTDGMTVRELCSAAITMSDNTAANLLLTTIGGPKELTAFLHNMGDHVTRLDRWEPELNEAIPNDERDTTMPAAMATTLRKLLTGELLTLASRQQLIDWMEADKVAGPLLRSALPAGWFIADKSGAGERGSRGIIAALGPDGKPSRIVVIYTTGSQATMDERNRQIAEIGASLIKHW

Protein Tat = molecular target: T1, Protein Tat (Human immunodeficiency virus type 1 group M subtype B (isolate HXB2)(HIV-1), UniProt P04608); assay type: functional;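 further: tat binding to TAR RNA read out by fluorescence polarization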
T1 sequence (P04608 whole entry): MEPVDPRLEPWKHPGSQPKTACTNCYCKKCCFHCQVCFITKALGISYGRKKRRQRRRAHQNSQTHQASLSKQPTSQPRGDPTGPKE

[1] = viability loss in THP-1 monocytes – THP-1 cells, cytotoxicity control for Vif-APOBEC3G degradation inhibitor project, dose response (AID 1117359); assay type: functional; conditions: THP-1
[2] = PKA-R1A complex activators, counter-screen titration – biochemical, Cy5-IP20 fluorescence polarization, 1536-well, triplicate, counter-screen for PKA-R2B activator project, dose response (AID 504896)
[3] = Fluorescence polarization-based biochemical high throughput dose response assay for activators of the Protein Kinase A-R2B (PKA-R2B) complex. [Related pubchem assays (depositor defined):AID504700, AID504704, AID504796, AID504797]
[4] = molecular target: T2, RNA-binding protein pos-1 (Caenorhabditis elegans, UniProt G5EF15); assay: disruptors of C. elegans POS-1 RNA interaction – biochemical, fluorescence polarization, dose response (AID 1964);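 further: purified POS-1 fused to maltose binding protein made in E. coli; potency of compounds blocking POS-1 binding to fluorescent RNA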
T2 sequence (G5EF15 whole entry): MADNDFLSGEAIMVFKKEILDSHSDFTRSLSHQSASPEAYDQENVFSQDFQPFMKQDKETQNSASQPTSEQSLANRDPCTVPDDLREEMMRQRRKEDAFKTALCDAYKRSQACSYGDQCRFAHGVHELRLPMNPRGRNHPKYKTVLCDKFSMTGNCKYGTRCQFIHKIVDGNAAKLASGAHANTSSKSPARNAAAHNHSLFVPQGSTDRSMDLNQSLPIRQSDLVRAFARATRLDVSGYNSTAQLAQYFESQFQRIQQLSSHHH

[5] = molecular target: T3, Zinc finger protein mex-5 (Caenorhabditis elegans, UniProt Q9XUB2); assay: potency of MEX-5 RNA-binding blockers – biochemical, C. elegans, fluorescence polarization, dose response (AID 1960)
T3 sequence (Q9XUB2 whole entry): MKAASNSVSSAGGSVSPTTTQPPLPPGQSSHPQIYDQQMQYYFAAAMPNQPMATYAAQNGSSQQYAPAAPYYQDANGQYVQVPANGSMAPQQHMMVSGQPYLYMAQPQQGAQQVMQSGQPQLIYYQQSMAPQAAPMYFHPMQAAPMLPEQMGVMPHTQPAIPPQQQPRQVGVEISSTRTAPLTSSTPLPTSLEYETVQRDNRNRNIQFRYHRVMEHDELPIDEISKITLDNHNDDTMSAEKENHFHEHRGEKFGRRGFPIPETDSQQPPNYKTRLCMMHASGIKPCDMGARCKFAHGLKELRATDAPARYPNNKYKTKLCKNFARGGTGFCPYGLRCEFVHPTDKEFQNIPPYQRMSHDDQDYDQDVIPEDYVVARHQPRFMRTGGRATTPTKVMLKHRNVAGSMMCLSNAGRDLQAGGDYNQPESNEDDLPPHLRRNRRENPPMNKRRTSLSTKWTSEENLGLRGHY

Keap1/Nrf2 = Keap1/Nrf2 (Homo sapiens, UniProt Q14145); assay: disruptors of Keap1 binding to Nrf2 peptide – biochemical, fluorescence polarization, cherry-picked samples, dose response (AID 588683)
Chain of Keap1/Nrf2 (Q16236 whole entry): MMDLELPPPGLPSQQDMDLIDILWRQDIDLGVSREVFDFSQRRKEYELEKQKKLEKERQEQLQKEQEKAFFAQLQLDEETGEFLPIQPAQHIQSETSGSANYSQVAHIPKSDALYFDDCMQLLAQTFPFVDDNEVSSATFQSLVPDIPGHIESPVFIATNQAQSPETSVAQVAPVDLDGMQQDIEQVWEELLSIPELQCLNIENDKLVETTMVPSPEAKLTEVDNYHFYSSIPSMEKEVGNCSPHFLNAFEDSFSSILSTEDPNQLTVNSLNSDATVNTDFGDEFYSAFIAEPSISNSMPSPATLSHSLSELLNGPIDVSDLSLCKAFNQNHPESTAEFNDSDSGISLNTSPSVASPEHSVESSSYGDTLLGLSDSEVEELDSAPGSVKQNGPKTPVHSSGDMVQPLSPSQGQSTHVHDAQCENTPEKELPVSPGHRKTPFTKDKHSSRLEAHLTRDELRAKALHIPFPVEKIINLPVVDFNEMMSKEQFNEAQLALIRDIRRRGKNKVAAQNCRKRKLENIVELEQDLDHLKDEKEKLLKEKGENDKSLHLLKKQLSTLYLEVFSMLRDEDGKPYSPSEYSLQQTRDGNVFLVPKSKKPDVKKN
Chain of Keap1/Nrf2 (Q14145 whole entry): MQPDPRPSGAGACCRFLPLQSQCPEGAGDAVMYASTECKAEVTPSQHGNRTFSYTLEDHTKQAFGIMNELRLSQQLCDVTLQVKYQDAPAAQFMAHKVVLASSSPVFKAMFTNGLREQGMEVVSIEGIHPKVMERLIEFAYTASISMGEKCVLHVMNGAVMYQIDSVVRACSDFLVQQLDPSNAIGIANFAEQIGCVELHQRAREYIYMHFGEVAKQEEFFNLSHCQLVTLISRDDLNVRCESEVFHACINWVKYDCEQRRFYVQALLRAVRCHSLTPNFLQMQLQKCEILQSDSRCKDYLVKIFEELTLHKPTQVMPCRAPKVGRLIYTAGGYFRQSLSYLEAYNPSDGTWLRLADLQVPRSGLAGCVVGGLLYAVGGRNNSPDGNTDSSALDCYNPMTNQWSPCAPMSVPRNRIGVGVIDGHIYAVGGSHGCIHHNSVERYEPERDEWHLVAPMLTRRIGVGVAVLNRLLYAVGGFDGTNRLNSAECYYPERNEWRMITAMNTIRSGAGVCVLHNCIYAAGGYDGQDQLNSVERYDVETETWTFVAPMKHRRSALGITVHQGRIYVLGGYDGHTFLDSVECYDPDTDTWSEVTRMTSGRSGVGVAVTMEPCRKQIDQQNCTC

[6] = molecular target: T4, Endoribonuclease toxin MazF (Escherichia coli K-12, UniProt P0AE70); assay: activation of MazEF endoribonuclease cleavage – biochemical, fluorescence, single-stranded RNA substrate, uHTS hits, dose response (AID 588481); assay type: functional
T4 sequence (P0AE70 whole entry): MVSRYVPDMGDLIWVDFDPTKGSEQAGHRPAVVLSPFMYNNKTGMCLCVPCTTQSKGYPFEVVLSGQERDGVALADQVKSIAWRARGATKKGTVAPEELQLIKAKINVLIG

[7] = molecular target: T4, Endoribonuclease toxin MazF; assay: substrate-only fluorescence increase artefacts – biochemical, single-stranded RNase substrate, counter-screen for MazEF activator project, dose response (AID 588502); assay type: functional
HEK293 [8] = assay: HEK293T cell viability loss, resazurin readout – resazurin fluorescence, cytotoxicity control for NF-kB activator project, SAR follow-up (AID 493251); assay type: functional, cell-based; conditions: Homo sapiens
Jurkat = assay: SAR Analysis of small molecule inhibitors of T-cell specific antigen receptor-induced NF-kB activation in a Jurkat cell line using a luminescence assay - Set 2. [Related pubchem assays (depositor defined):AID435003, AID435012, AID465]; assay type: functional, cell-based; conditions: Homo sapiens
HEK293 [9] = assay: SAR Analysis of small molecule inhibitors of T-cell specific antigen receptor-induced NF-kB activation in a HEK-293T cell line using a luminescence assay - Set 2. [Related pubchem assays (depositor defined):AID435003, AID435012, AID489026]; assay type: functional, cell-based; conditions: Homo sapiens
[10] = molecular target: T5, Short transient receptor potential channel 4 (Mus musculus, UniProt Q9QUQ5); assay: SAR Analysis for the identification of selective inhibits of the transient receptor potential cation channel C4 (TRPC4): Automated Electrophysiology_2. [Related pubchem assays (depositor defined):AID2256]; assay type: functional
T5 sequence (Q9QUQ5 whole entry): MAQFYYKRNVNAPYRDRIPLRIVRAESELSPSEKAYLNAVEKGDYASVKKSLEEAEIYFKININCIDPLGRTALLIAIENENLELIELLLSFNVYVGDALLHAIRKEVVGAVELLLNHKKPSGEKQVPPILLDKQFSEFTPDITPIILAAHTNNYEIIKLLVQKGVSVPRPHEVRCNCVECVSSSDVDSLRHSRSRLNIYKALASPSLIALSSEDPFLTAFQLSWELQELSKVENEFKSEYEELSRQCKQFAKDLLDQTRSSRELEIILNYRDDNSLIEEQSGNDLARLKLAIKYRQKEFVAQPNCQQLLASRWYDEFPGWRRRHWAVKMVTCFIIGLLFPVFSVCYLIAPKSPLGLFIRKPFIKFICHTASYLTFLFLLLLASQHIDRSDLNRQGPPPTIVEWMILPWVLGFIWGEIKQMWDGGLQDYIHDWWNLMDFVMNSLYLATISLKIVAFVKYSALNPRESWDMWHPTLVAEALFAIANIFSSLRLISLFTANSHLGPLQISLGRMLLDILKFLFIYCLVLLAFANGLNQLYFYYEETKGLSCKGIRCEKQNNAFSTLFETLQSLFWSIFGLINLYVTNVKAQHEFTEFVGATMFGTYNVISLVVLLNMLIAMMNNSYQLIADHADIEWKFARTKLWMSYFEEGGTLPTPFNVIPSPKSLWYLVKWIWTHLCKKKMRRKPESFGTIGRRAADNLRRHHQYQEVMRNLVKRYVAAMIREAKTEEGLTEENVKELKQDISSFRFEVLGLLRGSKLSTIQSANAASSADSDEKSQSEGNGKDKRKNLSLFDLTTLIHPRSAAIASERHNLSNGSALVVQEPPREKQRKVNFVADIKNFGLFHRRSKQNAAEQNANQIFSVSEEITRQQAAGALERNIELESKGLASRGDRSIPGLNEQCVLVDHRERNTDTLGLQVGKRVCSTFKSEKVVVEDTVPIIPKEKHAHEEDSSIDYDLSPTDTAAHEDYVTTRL

[11] = molecular target: T5, Short transient receptor potential channel 4; assay: potency of mouse TRPC4 calcium flux blockers – cell-based, HEK293 TRPC4/mu-opioid, DAMGO stimulus, Fluo-4, dose response (AID 492994); assay type: functional
NIH3T3 = assay: mammalian cell viability counter-check – Alamar Blue, fluconazole, dry powder, cytotoxicity control for antifungal drug resistance project, dose response (AID 488809); assay type: functional, cell-based; conditions: Mus musculus
[12] = molecular target: T6, Mannose-6-phosphate isomerase (Homo sapiens, UniProt P34949); assay: MPI enzyme activity inhibition – biochemical, fluorescence intensity, coupled assay, primary screen (AID 1209)
T6 sequence (P34949 whole entry): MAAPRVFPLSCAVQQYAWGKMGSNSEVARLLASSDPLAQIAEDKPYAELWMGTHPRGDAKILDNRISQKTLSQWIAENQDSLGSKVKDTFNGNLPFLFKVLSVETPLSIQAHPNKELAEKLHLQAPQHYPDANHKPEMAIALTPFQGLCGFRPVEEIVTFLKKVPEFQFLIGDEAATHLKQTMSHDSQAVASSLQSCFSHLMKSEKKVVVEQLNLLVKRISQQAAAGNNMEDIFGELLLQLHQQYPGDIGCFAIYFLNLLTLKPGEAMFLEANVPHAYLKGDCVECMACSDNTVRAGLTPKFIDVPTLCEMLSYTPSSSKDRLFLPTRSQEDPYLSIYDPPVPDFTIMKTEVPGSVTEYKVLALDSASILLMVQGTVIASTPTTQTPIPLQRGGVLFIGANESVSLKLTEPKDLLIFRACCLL

[13] = molecular target: T7, Apoptotic protease-activating factor 1 (Homo sapiens, UniProt O14727); assay type: functional
T7 sequence (O14727 whole entry): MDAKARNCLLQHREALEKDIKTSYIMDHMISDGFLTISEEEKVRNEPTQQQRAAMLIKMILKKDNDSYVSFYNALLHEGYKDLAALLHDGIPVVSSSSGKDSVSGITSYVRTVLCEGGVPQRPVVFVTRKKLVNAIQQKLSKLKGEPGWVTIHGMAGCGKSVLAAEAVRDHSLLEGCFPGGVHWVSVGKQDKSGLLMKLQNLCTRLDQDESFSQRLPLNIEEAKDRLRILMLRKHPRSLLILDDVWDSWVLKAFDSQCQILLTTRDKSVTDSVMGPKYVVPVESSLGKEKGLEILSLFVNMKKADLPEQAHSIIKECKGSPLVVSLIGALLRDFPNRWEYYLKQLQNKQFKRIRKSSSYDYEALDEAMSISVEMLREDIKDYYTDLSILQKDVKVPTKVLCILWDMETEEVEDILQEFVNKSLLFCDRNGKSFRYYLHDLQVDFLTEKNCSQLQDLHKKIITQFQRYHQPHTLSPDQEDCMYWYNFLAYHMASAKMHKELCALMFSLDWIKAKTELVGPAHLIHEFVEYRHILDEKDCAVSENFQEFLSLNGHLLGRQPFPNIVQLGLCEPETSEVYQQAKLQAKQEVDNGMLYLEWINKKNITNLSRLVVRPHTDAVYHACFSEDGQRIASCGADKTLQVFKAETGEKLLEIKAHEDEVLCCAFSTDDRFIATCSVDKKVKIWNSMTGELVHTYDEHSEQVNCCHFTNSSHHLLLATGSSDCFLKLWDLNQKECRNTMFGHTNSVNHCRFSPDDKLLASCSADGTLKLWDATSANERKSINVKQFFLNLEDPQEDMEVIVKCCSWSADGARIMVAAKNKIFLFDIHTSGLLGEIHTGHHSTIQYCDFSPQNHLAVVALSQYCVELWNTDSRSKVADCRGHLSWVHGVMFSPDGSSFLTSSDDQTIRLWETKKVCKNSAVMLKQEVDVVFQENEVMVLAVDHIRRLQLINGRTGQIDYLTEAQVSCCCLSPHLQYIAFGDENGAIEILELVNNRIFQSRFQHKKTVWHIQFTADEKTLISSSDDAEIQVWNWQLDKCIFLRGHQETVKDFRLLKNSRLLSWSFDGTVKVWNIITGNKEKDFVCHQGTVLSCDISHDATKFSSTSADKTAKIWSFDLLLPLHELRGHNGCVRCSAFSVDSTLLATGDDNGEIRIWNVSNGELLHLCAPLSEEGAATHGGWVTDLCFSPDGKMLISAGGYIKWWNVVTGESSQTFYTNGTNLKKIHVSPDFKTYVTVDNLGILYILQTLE

Compound: N#Cc1ccc(-c2ccco2)nc1SCC(=O)c1ccc(Cl)cc1
IC50 (CHO): 16.7 µM (inactive)
IC50 (Beta Lactamase): 10.1 µM (inactive)
IC50 (Protein Tat): > 100 µM (active)
CC50 [1]: > 40 µM (active)

Compound: CCCn1c(-c2cccs2)nc2c1c(=O)[nH]c(=O)n2Cc1ccccc1
EC50 [6]: > 99 µM (inactive)
EC50 [7]: > 99 µM (inactive)

Compound: CNC(=O)CCc1nc(-c2ccccc2)no1
IC50 (HEK293 [8]): > 80 µM (inactive)
IC50 (Jurkat): > 79 µM (inactive)
IC50 (HEK293 [9]): > 80 µM (inactive)

Compound: O=C(Cn1nc(-c2ccccc2)c2ccccc21)N1CCc2ccccc2C1
AC50 (NIH3T3): 34.9 µM (active)

Now from value to compound:

EC50 [2]: > 114 µM (inactive)
EC50 [3]: 66.9 µM (inactive)
Compound: O=C(O)c1sccc1SCc1ccc(Cl)cc1Cl

EC50 [4]: 9.61 µM (active)
EC50 [5]: 9.02 µM (inconclusive)
AC50 (Keap1/Nrf2): 39.6 µM (active)
Compound: Cc1cc(C)c[n+](-c2[n-]c(=O)sc2C=NN=C(S)Nc2ccccc2)c1

IC50 [10]: 9.4 µM (active)
IC50 [11]: 7.32 µM (active)
Compound: Cc1cc(N2CCCC(O)C2)nc2ccccc12 (centres undefined)

IC50 [12]: > 50 µM (not active)
IC50 [13]: 39.2 µM (active)
Compound: O=C(N/N=C/c1ccc(-c2ccccc2[N+](=O)[O-])o1)c1cccnc1
